Results: patent US20220235049A1, “SUBSTITUTED PYRROLO [2, 3-b] PYRIDINE AND PYRAZOLO [3,4-b] PYRIDINE DERIVATIVES AS PROTEIN KINASE INHIBITORS” (Fochon Pharmaceuticals, Ltd., priority 2019, published 2022)
Read-outs that look alike come from different tables or passages of the source. Blank lines part the entries; values can stand above or below the compound they belong to.

Columns and labels:
[1] = biological target: T1, BTK (C481S) (Homo sapiens, UniProt Q06187, C481S); assay: Kinase assay of BTK (C481S), [33P]-ATP filter-binding, at Reaction Biology Corporation; format: biochemical; details: 10 μM ATP, 20 min preincubation, 120 min reaction
T1 construct: purchased SignalChem B10-12CH
T1 sequence (Q06187 whole entry C481S): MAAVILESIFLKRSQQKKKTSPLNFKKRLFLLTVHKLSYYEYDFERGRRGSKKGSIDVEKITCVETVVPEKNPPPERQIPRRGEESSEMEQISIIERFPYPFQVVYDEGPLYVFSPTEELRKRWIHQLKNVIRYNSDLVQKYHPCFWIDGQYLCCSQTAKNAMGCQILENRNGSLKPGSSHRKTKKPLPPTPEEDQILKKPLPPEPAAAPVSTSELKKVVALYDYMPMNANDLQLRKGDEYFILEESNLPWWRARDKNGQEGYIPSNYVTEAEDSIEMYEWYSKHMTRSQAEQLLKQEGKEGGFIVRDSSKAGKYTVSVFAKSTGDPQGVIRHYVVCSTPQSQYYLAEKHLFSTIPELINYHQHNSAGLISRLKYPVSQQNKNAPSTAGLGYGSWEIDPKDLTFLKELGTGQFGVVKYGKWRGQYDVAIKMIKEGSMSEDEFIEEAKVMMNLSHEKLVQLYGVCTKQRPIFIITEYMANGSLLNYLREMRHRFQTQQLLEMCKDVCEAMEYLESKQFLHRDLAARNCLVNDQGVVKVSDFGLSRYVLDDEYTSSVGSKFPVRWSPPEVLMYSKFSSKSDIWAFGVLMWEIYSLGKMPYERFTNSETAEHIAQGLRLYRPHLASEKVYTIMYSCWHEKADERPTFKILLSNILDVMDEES
Experimental: The kinase activity of BTK (C481S) was assayed at Reaction Biology Corporation. The substrate in the BTK (C481S) reaction, pEY (poly[Glu:Tyr] (4:1)) (Sigma, Cat. #P7244-250MG), was prepared in fresh reaction buffer (20 mM Hepes (pH 7.5), 10 mM MgCl2, 1 mM EGTA, 0.02% Brij35, 0.02 mg/ml BSA, 0.1 mM Na3VO4, 2 mM DTT, 1% DMSO). BTK(C481S) (SignalChem, Cat. #B10-12CH) was delivered into the substrate solution and mixed gently. The final concentrations of BTK (C481S) and the substrate in the reaction mixture were 6 nM and 0.2 mg/ml, respectively. Compounds were tested in 10-point concentration/response mode with 3-fold serial dilution steps starting at 1 μM.
Compounds in 100% DMSO were delivered into the kinase reaction mixture by acoustic liquid delivery technology (Echo550; nanoliter range) and incubated for 20 min at room temperature. 10 μM [^33P]-ATP (ATP: Sigma, Cat #: A7699; [^33P]-ATP: Hartmann Analytic, Cat #: SCF-301-12) was delivered into the reaction mixture to initiate the reaction. The mixture was incubated for 120 min at room temperature. Radioactivity was detected utilizing a proprietary filter-binding method. Kinase activity data were expressed as the percent remaining kinase activity in test samples compared to vehicle (DMSO) reactions. IC50 values were obtained using GraphPad Prism software.
Select compounds prepared as described above were assayed according to the biological procedures described herein.

[2] = system: DOHH2 cells; assay: Cell proliferation assay in DOHH2 cells (MTS); format: cell-based; details: Homo sapiens, DOHH-2, 120 h
Summary of the method: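 DOHH2 cells at 5000/well were treated with compound at 1.5–10000 nM for 120 h at 37 °C, as a proxy for BTK inhibition. Proliferation was read by MTS for 2 h, stopped with SDS, and absorbance measured at 490 nm with 650 nm reference; IC50 was fitted from the curve.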

[3] = Pharmacokinetics in male Sprague-Dawley rats; format: in vivo; details: rat; for AUC(0-inf) / AUC(0-t) / clearance / half-life / Cmax / MRT last / Vd / Tmax: male, Sprague-Dawley, plasma; for Cmax: read-out: Cmax/C0; for MRT last: read-out: MRT0-t; for Vd: read-out: Vdss
Experimental: The purpose of this study was to determine the pharmacokinetics of Example 71 and Example 75 in male Sprague-Dawley rats (Supplied by Beijing Vital River Laboratory Animal Technology Co., Ltd.).
Animals in Group 1 were administered with Example 71 by single intravenous bolus injection at 1 mg/kg, which was formulated in 60% Phosal 50 PG (Lipoid, Batch #368315-3180028/009): 30% PEG400 (Sigma, Batch #MKCH6281): 10% Ethanol (Merck, Batch #K48244883634) at 1 mg/mL as a solution. Animals in Group 2 were administered with Example 71 by single oral gavage (PO) administration at 5 mg/kg, which was formulated in 60% Phosal 50 PG (Lipoid, Batch #368315-3180028/009): 30% PEG400 (Sigma, Batch #MKCH6281): 10% Ethanol (Merck, Batch #K48244883634) at 1 mg/mL as a solution. Blood samples were collected at 0.083, 0.25, 0.5, 1, 2, 4, 8, 12 and 24 hours post-dose. Concentrations of Example 71 in plasma were determined by LC/MS/MS (LC: Waters UPLC; MS: API4000).
Animals in Group 3 were administered with Example 75 by single intravenous bolus injection at 2 mg/kg, which was formulated in 10% DMSO (Sigma, Batch #LPC0S181): 60% PEG400 (Sigma, Batch #MKCH6281): 30% water at 2 mg/mL as a solution. Animals in Group 4 were administered with Example 75 by single oral gavage (PO) administration at 10 mg/kg, which was formulated in 10% DMSO (Sigma, Batch #LPC0S181): 60% PEG400 (Sigma, Batch #MKCH6281): 30% water at 2 mg/mL as a solution. Blood samples were collected at 0.083, 0.25, 0.5, 1, 2, 4, 8, 12 and 24 hours post-dose. Concentrations of Example 75 in plasma were determined by LC/MS/MS (LC: Waters UPLC; MS: Triple Quad 6500 plus).

IC50 [1]: 2.22 nM
Structure (SMILES): O=C(c1ccc(Oc2ccccc2)cc1Cl)c1c[nH]c2nccc(N[C@@H]3CC[C@@H](CO)OC3)c12 [Example 2, (2-Chloro-4-phenoxyphenyl)(4-(((3R,6S)-6-(hydroxymethyl)tetrahydro-2H-pyran-3-yl)amino)-1H-pyrrolo[2,3-b]pyridin-3-yl)methanone]
IC50 [2]: 26 nM

IC50 [1]: 1.12 nM
Structure (SMILES): COc1cnc2[nH]cc(C(=O)c3ccc(Oc4ccccc4)cc3Cl)c2c1N[C@@H]1CC[C@@H](CO)OC1 [Example 27, (2-chloro-4-phenoxyphenyl)(4-(((3R,6S)-6-(hydroxymethyl)tetrahydro-2H-pyran-3-yl)amino)-5-methoxy-1H-pyrrolo[2,3-b]pyridin-3-yl)methanone]
IC50 [2]: 1 nM

IC50 [1]: 1 nM
Structure (SMILES): CCOc1cnc2[nH]cc(C(=O)c3ccc(Oc4ccccc4F)cc3)c2c1N[C@@H]1CC[C@@H](CO)OC1 [Example 63, (5-ethoxy-4-(((3R,6S)-6-(hydroxymethyl)tetrahydro-2H-pyran-3-yl)amino)-1H-pyrrolo[2,3-b]pyridin-3-yl)(4-(2-fluorophenoxy)phenyl)methanone]
IC50 [2]: 1 nM

IC50 [1]: 0.77 nM | AUC(0-inf) ([3]; iv, 1 mg/kg): 3.77 µg·h/mL | AUC(0-t) ([3]; iv, 1 mg/kg): 3.76 µg·h/mL | clearance ([3]; iv, 1 mg/kg): 0.282 L/h/kg | half-life ([3]; iv, 1 mg/kg): 3.07 h | Cmax ([3]; iv, 1 mg/kg): 4.36 µg/mL | MRT last ([3]; iv, 1 mg/kg): 1.93 h | Vd ([3]; iv, 1 mg/kg): 0.541 L/kg | AUC(0-inf) ([3]; po, 5 mg/kg): 10.1 µg·h/mL | AUC(0-t) ([3]; po, 5 mg/kg): 10.1 µg·h/mL | Tmax ([3]; po, 5 mg/kg): 4 h | half-life ([3]; po, 5 mg/kg): 2.74 h | Cmax ([3]; po, 5 mg/kg): 1.68 µg/mL | MRT last ([3]; po, 5 mg/kg): 5.26 h | F ([3]; po 5 mg/kg vs iv 1 mg/kg): 53.7%
Structure (SMILES): CCOc1cnc2[nH]cc(C(=O)c3ccc(Oc4ccccc4F)cc3F)c2c1N[C@@H]1CC[C@@H](CO)OC1 [Example 71, (5-ethoxy-4-(((3R,6S)-6-(hydroxymethyl)tetrahydro-2H-pyran-3-yl)amino)-1H-pyrrolo[2,3-b]pyridin-3-yl)(2-fluoro-4-(2-fluorophenoxy)phenyl)methanone]
IC50 [2]: 1 nM

AUC(0-inf) ([3]; iv, 2 mg/kg): 10.2 µg·h/mL | AUC(0-t) ([3]; iv, 2 mg/kg): 10.1 µg·h/mL | clearance ([3]; iv, 2 mg/kg): 0.2 L/h/kg | half-life ([3]; iv, 2 mg/kg): 2.56 h | Cmax ([3]; iv, 2 mg/kg): 6.35 µg/mL | MRT last ([3]; iv, 2 mg/kg): 2.43 h | Vd ([3]; iv, 2 mg/kg): 0.489 L/kg | AUC(0-inf) ([3]; po, 10 mg/kg): 29 µg·h/mL | AUC(0-t) ([3]; po, 10 mg/kg): 28.9 µg·h/mL | Tmax ([3]; po, 10 mg/kg): 2.83 h | half-life ([3]; po, 10 mg/kg): 2.8 h | Cmax ([3]; po, 10 mg/kg): 4.14 µg/mL | MRT last ([3]; po, 10 mg/kg): 5.58 h | F ([3]; po 10 mg/kg vs iv 2 mg/kg): 57.1%
Structure (SMILES): COc1cnc2[nH]cc(C(=O)c3ccc(Oc4ccccc4F)cc3F)c2c1N[C@@H]1CC[C@@H](CO)OC1 [Example 75, (2-fluoro-4-(2-fluorophenoxy)phenyl)(4-(((3R,6S)-6-(hydroxymethyl)tetrahydro-2H-pyran-3-yl)amino)-5-methoxy-1H-pyrrolo[2,3-b]pyridin-3-yl)methanone]
IC50 [2]: 1 nM

IC50 [1]: 0.959 nM
Structure (SMILES): CCOc1cnc2[nH]cc(C(=O)c3ccc(Oc4ccccc4)cc3C)c2c1N[C@@H]1CC[C@@H](CO)OC1 [Example 127, (5-ethoxy-4-(((3R,6S)-6-(hydroxymethyl)tetrahydro-2H-pyran-3-yl)amino)-1H-pyrrolo[2,3-b]pyridin-3-yl)(2-methyl-4-phenoxyphenyl)methanone]
IC50 [2]: 1 nM

IC50 [1]: 0.972 nM
Structure (SMILES): CCOc1cnc2[nH]cc(C(=O)c3ccc(Oc4ccccc4)cc3Cl)c2c1N[C@@H]1CC[C@@H](CO)OC1 [Example 128, (2-chloro-4-phenoxyphenyl)(5-ethoxy-4-(((3R,6S)-6-(hydroxymethyl)tetrahydro-2H-pyran-3-yl)amino)-1H-pyrrolo[2,3-b]pyridin-3-yl)methanone]
IC50 [2]: 1 nM

IC50 [1]: 0.455 nM
Structure (SMILES): CCOc1cnc2[nH]cc(C(=O)c3ccc(Oc4ccccc4)cc3F)c2c1N[C@@H]1CC[C@@H](CO)OC1 [Example 176, (5-ethoxy-4-(((3R,6S)-6-(hydroxymethyl)tetrahydro-2H-pyran-3-yl)amino)-1H-pyrrolo[2,3-b]pyridin-3-yl)(2-fluoro-4-phenoxyphenyl)methanone]
IC50 [2]: 1 nM
